From the supplement of paper PMC10307832

Experiments:
Assay in all cases: relative viability (nuclei count vs DMSO), 5 days (fraction); higher = more cells survive
[1] = compound: CC[C@@H]1C(=O)N(C)c2cnc(Nc3ccc(C(=O)NC4CCN(C)CC4)cc3OC)nc2N1C1CCCC1 [BI-2536] + COc1cccc2cc(-c3nc([C@H]4CC[C@H](C(=O)O)CC4)n4ncnc(N)c34)[nH]c12 [OSI-027] (partner 0.5 µM)
How it was run: (§1)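 Lung cancer cell lines, seeded in 1536-well plates, were treated the following day by pin tool with a single drug or with five library-drug doses (not always all listed) in √10 steps on top of a fixed anchor-drug dose. Cells were fixed and nuclei stained in one step after 5 days, and nuclei were counted. Relative viability is the nuclei count for treated wells divided by that for vehicle wells, reported as medians of duplicate plates.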

[2] = compound: CC1CC(=O)N(C2=CN=C(N=C2N1C3CCCC3)NC4=C(C=C(C=C4)C(=O)NC5CCN(CC5)C)OC)C [NPK76-II-72-1] + O=C(c1cc(Cc2n[nH]c(=O)c3ccccc23)ccc1F)N1CCN(C(=O)C2CC2)CC1 [Olaparib] (partner 8 µM)
How it was run: as §1

[3] = compound: CC[C@@H]1C(=O)N(C)c2cnc(Nc3ccc(C(=O)NC4CCN(C)CC4)cc3OC)nc2N1C1CCCC1 [BI-2536] + C[C@@H](Oc1cc(-c2cnn(C3CCNCC3)c2)cnc1N)c1c(Cl)ccc(F)c1Cl [Crizotinib] (partner 1 µM)
How it was run: as §1

[4] = compound: CC[C@@H]1C(=O)N(C)c2cnc(Nc3ccc(C(=O)NC4CCN(C)CC4)cc3OC)nc2N1C1CCCC1 [BI-2536] + CC(=O)Nc1cccc(-n2c(=O)n(C3CC3)c(=O)c3c(Nc4ccc(I)cc4F)n(C)c(=O)c(C)c32)c1 [Trametinib] (partner 0.02 µM)
How it was run: as §1

Row | Cell Line | relative viability ([1]; first compound 0.01 µM) | relative viability ([1]; first compound 0.03162 µM) | relative viability ([1]; first compound 0.1 µM) | relative viability ([1]; first compound 0.3162 µM) | relative viability ([1]; first compound 1 µM) | relative viability ([2]; first compound 0.01 µM) | relative viability ([2]; first compound 0.03162 µM) | relative viability ([2]; first compound 0.1 µM) | relative viability ([2]; first compound 0.3162 µM) | relative viability ([2]; first compound 1 µM) | relative viability ([3]; first compound 0.01 µM) | relative viability ([3]; first compound 0.03162 µM) | relative viability ([3]; first compound 0.1 µM) | relative viability ([3]; first compound 0.3162 µM) | relative viability ([3]; first compound 1 µM) | relative viability ([4]; first compound 0.01 µM) | relative viability ([4]; first compound 0.03162 µM) | relative viability ([4]; first compound 0.1 µM) | relative viability ([4]; first compound 0.3162 µM) | relative viability ([4]; first compound 1 µM)
1 | RERF-LC-KJ | 0.64 | 0.361 | 0.184 | 0.188 | 0.198 | 0.903 | 0.914 | 0.908 | 0.901 | 0.905 | 0.894 | 0.711 | 0.764 | 0.174 | 0.218 | 0.884 | 0.953 | 0.527 | 0.186 | 0.225
2 | A-427 | 0.464 | 0.471 | 0.251 | 0.12 | 0.119 | 0.644 | 0.772 | 0.74 | 0.653 | 0.869 | 0.927 | 0.678 | 0.535 | 0.119 | 0.0896 | 0.733 | 0.662 | 0.605 | 0.184 | 0.189
3 | NCI-H441 | 0.449 | 0.42 | 0.222 | 0.226 | 0.266 | 0.476 | 0.598 | 0.648 | 0.589 | 0.573 | 0.503 | 0.393 | 0.218 | 0.154 | 0.133 | 0.517 | 0.29 | 0.158 | 0.154 | 0.162
4 | NCI-H1703 | – | – | – | – | – | 0.473 | 0.54 | 0.381 | 0.33 | 0.431 | 0.626 | – | 0.173 | 0.131 | 0.0732 | – | – | – | – | –
5 | NCI-H1792 | 0.818 | 0.758 | 0.678 | 0.591 | 0.395 | – | 0.362 | 0.357 | 0.419 | 0.742 | 1.04 | 0.815 | 1.01 | 0.417 | 0.17 | 0.604 | 0.417 | 0.395 | 0.0597 | 0.0491
6 | Calu-6 | – | – | – | – | – | 0.561 | 0.625 | 0.65 | 0.62 | 0.559 | 0.713 | 0.4 | 0.273 | 0.113 | 0.102 | – | – | – | – | –
7 | SK-LU-1 | 0.341 | 0.278 | 0.198 | 0.172 | 0.146 | 0.432 | 0.49 | 0.475 | 0.511 | 0.587 | 0.857 | 0.51 | 0.357 | 0.299 | 0.279 | 0.347 | 0.514 | 0.335 | 0.218 | 0.386
8 | PC-3 [JPC-3] | 0.828 | 0.581 | 0.333 | 0.179 | 0.16 | 1.12 | – | 1.09 | 1.09 | 1.2 | 1.04 | 0.846 | 0.871 | 0.33 | 0.244 | 0.71 | 0.583 | 0.616 | 0.357 | 0.438
9 | EMC-BAC-2 | 0.381 | 0.358 | 0.249 | 0.193 | 0.184 | 0.468 | 0.506 | 0.51 | 0.486 | 0.541 | 0.882 | 0.791 | 0.701 | 0.174 | 0.145 | 0.854 | 0.851 | 0.819 | 0.303 | 0.277
